# Measured values as given in US7468392B1, “Anti-fatigue cyclohexenone compounds from antrodia camphorata” (Golden Biotechnology Corporation, priority 2007, dated 2008).
# How the values were obtained:
# Format in all cases: in vivo, human
# [1] = tested on: healthy male volunteers; test: Ammonia levels in blood before/after exhaustive exercise at 80% VO2max; details: for blood ammonia levels: exercise (DE), plasma, Mean, n = 15; for effect of supplementation after exercise on metabolism of blood ammonia: exhaustive exercise at 80% VO2max, versus placebo
# Description: (§1) The present invention is based on supplementing cyclohexenone of Antrodia camphorata or placebo with no cyclohexenone of Antrodia camphorata to the subjects. The subjects were tested for the anti-fatigue function after supplementing cyclohexenone of Antrodia camphorata by measuring the amounts of fatigue indexes such as CPK, lactic acid, glucose, ammonia and free fatty acid before and after exhaustive exercise load at 80% VO2max.
# (§2) Subjects were randomized to receive either cyclohexenone of Antrodia camphorata or placebo. Placebo contained substances such as cornstarch but no cyclohexenone of Antrodia camphorata. A double-blind, cross-over method was performed in this study where neither the evaluator nor the subject knew the content of the test substances. Based on rules of order balance, each subject have to receive the following tests: relaxing and receiving placebo (PR), exercising and receiving placebo (PE), relaxing and receiving cyclohexenone of Antrodia camphorata (DR), and exercising and receiving cyclohexenone of Antrodia camphorata (DE). Each test was carried out for one week, and took one week off before the next test until all 4 tests were performed in each subject. The exercise was performed on a treadmill with the load intensity at the measured 80% VO2max (7.61±1.87) until exhausted. Subjects received cyclohexenone of Antrodia camphorata or placebo after exercise in the amount of 0.2 g/kg body weight per day. […] Blood was collected in anticoagulant (such as EDTA) containing collection tubes, and was centrifuged at 3000 g. for 10 min to collect the plasma. The fatigue indexes such as CPK, lactic acid, glucose, ammonia and free fatty acid were analyzed accordingly. The physiological and biochemical changes before and after exercise with different supplements were compared and shown as values of mean and standard error (Mean±SEM). […] The details for the biochemical analysis and results are described below:
# The measurement of blood ammonia was performed with an automated blood analyzer Johnson & Johnson DT-60II based on the spectrophotometric method. Bromphenol blue was added into a defined amount of plasma to generate blue products. The reaction is shown below:
# The absorbance at 605 nm was measured to obtain the concentration of blood ammonia.
# [2] = tested on: healthy male volunteers; test: Lactate levels in blood before/after exhaustive exercise at 80% VO2max; details: for blood lactate levels: plasma, Mean, n = 15; for effect of supplementation after exercise on metabolism of blood lactate: exhaustive exercise at 80% VO2max, versus placebo
# Description: as §1, §2
# The measurement of blood lactate was performed with an automated blood analyzer using dry chemistry method (Johnson & Johnson DT-60II) based on enzyme function and spectrophotometric theory. Lactate oxidase was added into a defined amount of plasma for reaction, followed by addition of 4-aminoantipyrine and 1,7-dihydroxynaphthalene. A red product was formed through activities of peroxidase. The reactions are shown below:
# The absorbance at 540 nm was measured to obtain the concentration of blood lactate.
# [3] = tested on: healthy male volunteers; test: Free fatty acid levels before/after exhaustive exercise at 80% VO2max; details: for levels of free fatty acid: plasma, Mean, n = 15; for effect of supplementation after exercise on metabolism of free fatty acid: exhaustive exercise at 80% VO2max, versus placebo
# Description: as §1, §2
# The measurement of free fatty acid level was performed based on enzyme function and spectrophotometric theory. Acyl CoA synthetase and acyl CoA oxidase were added into a defined amount of plasma for reaction. A purple product was formed through activities of peroxidase. The reactions are shown below:
# The absorbance at 550 nm was measured to obtain the concentration of free fatty acid.
# [4] = tested on: healthy male volunteers; test: Anti-fatigue test for cyclohexenone of Antrodia camphorata (fatigue indexes overall); details: after exhaustive exercising at 80% VO2max, indexes CPK, lactic acid, glucose, ammonia, free fatty acid
# Description: as §1
# Subjects were randomized to receive either cyclohexenone of Antrodia camphorata or placebo. Placebo contained substances such as cornstarch but no cyclohexenone of Antrodia camphorata. A double-blind, cross-over method was performed in this study where neither the evaluator nor the subject knew the content of the test substances. Based on rules of order balance, each subject have to receive the following tests: relaxing and receiving placebo (PR), exercising and receiving placebo (PE), relaxing and receiving cyclohexenone of Antrodia camphorata (DR), and exercising and receiving cyclohexenone of Antrodia camphorata (DE). […] The exercise was performed on a treadmill with the load intensity at the measured 80% VO2max (7.61±1.87) until exhausted. […] The fatigue indexes such as CPK, lactic acid, glucose, ammonia and free fatty acid were analyzed accordingly. […]
# [5] = listed as cyclohexenone from Antrodia camphorata
# [6] = listed as cyclohexenone from Antrodia camphorea
# [7] = Relax (DR), Post-exercise 0.5 h
# [8] = Relax (DR), Post-exercise 120 h
# [9] = Relax (DR), Post-exercise 168 h
# [10] = exercise (DE), Post-exercise 0 h
# [11] = exercise (DE), Post-exercise 0.5 h
# [12] = exercise (DE), Post-exercise 1 h
# [13] = exercise (DE), Post-exercise 2 h
# [14] = exercise (DE), Post-exercise 24 h
# [15] = exercise (DE), Post-exercise 48 h
# [16] = exercise (DE), Post-exercise 72 h
# [17] = exercise (DE), Post-exercise 120 h
# [18] = exercise (DE), Post-exercise 168 h
# [19] = exercise (DE), Prior to exercise
# [20] = listed as cyclohexenone of Antrodia camphorata
smiles,measurement,setting,value
"COC1=C(OC)C(O)C(C/C=C(\C)CC/C=C(\C)CCC=C(C)C)C(C)C1=O (stereo not drawn) [cyclohexenone, 4-hydroxy-2,3-dimethoxy-6-methyl-5(3,7,11-trimethyl-dodeca-2,6,10-trienyl)-cyclohex-2-enone]",blood ammonia levels,[1]; Post-exercise 1 h,44.86 µg/dL
same,blood ammonia levels,[1]; Post-exercise 2 h,37.53 µg/dL
same,blood ammonia levels,[1]; Post-exercise 24 h,27.93 µg/dL
same,blood ammonia levels,[1]; Post-exercise 48 h,20.93 µg/dL
same,blood ammonia levels,[1]; Post-exercise 72 h,30.07 µg/dL
same,blood ammonia levels,[1]; Post-exercise 120 h,23.21 µg/dL
same,blood ammonia levels,[1]; Post-exercise 168 h,24.86 µg/dL
same,blood ammonia levels,[1]; Prior to exercise,45.86 µg/dL
same,effect of supplementation after exercise on metabolism of blood ammonia,[1]; [5],facilitates the metabolism of blood ammonia
same,effect of supplementation after exercise on metabolism of blood ammonia,[1]; [6],beneficial to the recovery of creatine phosphate kinase and blood ammonia
same,"blood ammonia level, exercise group versus relax group receiving cyclohexenone","[1]; post exercise at 2 h, p<0.05",significantly superior
same,blood lactate levels,"[2]; Relax (DR), Post-exercise 0 h",2.39 mmol/L
same,blood lactate levels,[2]; [7],2.25 mmol/L
same,blood lactate levels,"[2]; Relax (DR), Post-exercise 1 h",3.00 mmol/L
same,blood lactate levels,"[2]; Relax (DR), Post-exercise 2 h",2.52 mmol/L
same,blood lactate levels,"[2]; Relax (DR), Post-exercise 24 h",2.26 mmol/L
same,blood lactate levels,"[2]; Relax (DR), Post-exercise 48 h",2.71 mmol/L
same,blood lactate levels,"[2]; Relax (DR), Post-exercise 72 h",2.22 mmol/L
same,blood lactate levels,[2]; [8],2.41 mmol/L
same,blood lactate levels,[2]; [9],2.41 mmol/L
same,blood lactate levels,"[2]; Relax (DR), Prior to exercise",2.54 mmol/L
same,blood lactate levels,[2]; [10],7.07 mmol/L
same,blood lactate levels,[2]; [11],3.20 mmol/L
same,blood lactate levels,[2]; [12],2.96 mmol/L
same,blood lactate levels,[2]; [13],2.9 mmol/L
same,blood lactate levels,[2]; [14],2.39 mmol/L
same,blood lactate levels,[2]; [15],2.77 mmol/L
same,blood lactate levels,[2]; [16],2.18 mmol/L
same,blood lactate levels,[2]; [17],2.53 mmol/L
same,blood lactate levels,[2]; [18],2.23 mmol/L
same,blood lactate levels,[2]; [19],2.50 mmol/L
same,effect of supplementation after exercise on metabolism of blood lactate,[2]; [5],did not affect the metabolism of blood lactate
same,effect of supplementation after exercise on metabolism of blood lactate,[2]; [20],no significant difference
same,levels of free fatty acid,"[3]; Relax (DR), Post-exercise 0 h",0.33 mM
same,levels of free fatty acid,[3]; [7],0.34 mM
same,levels of free fatty acid,"[3]; Relax (DR), Post-exercise 1 h",0.3 mM
same,levels of free fatty acid,"[3]; Relax (DR), Post-exercise 2 h",0.23 mM
same,levels of free fatty acid,"[3]; Relax (DR), Post-exercise 24 h",0.28 mM
same,levels of free fatty acid,"[3]; Relax (DR), Post-exercise 48 h",0.29 mM
same,levels of free fatty acid,"[3]; Relax (DR), Post-exercise 72 h",0.31 mM
same,levels of free fatty acid,[3]; [8],0.48 mM
same,levels of free fatty acid,[3]; [9],0.28 mM
same,levels of free fatty acid,"[3]; Relax (DR), Prior to exercise",0.38 mM
same,levels of free fatty acid,[3]; [10],0.91 mM
same,levels of free fatty acid,[3]; [11],0.6 mM
same,levels of free fatty acid,[3]; [12],0.61 mM
same,levels of free fatty acid,[3]; [13],0.59 mM
same,levels of free fatty acid,[3]; [14],0.41 mM
same,levels of free fatty acid,[3]; [15],0.28 mM
same,levels of free fatty acid,[3]; [16],0.44 mM
same,levels of free fatty acid,[3]; [17],0.3 mM
same,levels of free fatty acid,[3]; [18],0.32 mM
same,levels of free fatty acid,[3]; [19],0.34 mM
same,effect of supplementation after exercise on metabolism of free fatty acid,[3]; [5],did not affect the metabolism of free fatty acid
same,effect of supplementation after exercise on metabolism of free fatty acid,[3]; [20],no significant difference
same,anti-fatigue function (physiological fatigue after exercise),"[4]; listed as 4-hydroxy-2,3-dimethoxy-6-methyl-5(3,7,11-trimethyl-dodecca-2,6,10-trienyl)-cycl",can be used to delay physiological fatigue after exercise
same,anti-fatigue function (physiological fatigue after exercise),[4]; [6],delays physiological fatigue
